# Assay results taken from patent US11939314B2, “Quinolin-2-one derivatives” (MERCK PATENT GMBH, priority 2016, dated 2024).
# Tests used:
# PDGFRalpha(V561D) = target: T1, PDGFRalpha(V561D) (Homo sapiens, UniProt P16234, V561D); assay: PDGFRalpha(V561D) assay; type: biochemical; settings: recombinant human PDGFRalpha aa 550-end, 200 μM ATP, 1.4E-06 means 1.4×10^−6, read-out: Inhibition (IC50) of PDGFRα (V561D)
# T1 construct: recombinant human PDGFRalpha, amino acids 550end containing the V561 D mutation; 6His (N)
# Outline: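 Radiometric filter-binding assay: substrate phosphorylation by recombinant N-His-tagged human PDGFRα 550-end V561D was quenched with 3% phosphoric acid after 40 min at room temperature, then counted.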
# c-Kit(V654A) = target: T2, c-Kit(V654A) (Homo sapiens, UniProt P10721, V654A); assay: c-Kit(V654A) assay; type: biochemical; settings: recombinant human c-Kit aa 544-end, 200 μM ATP, 1.4E-06 means 1.4×10^−6, read-out: Inhibition (IC50) of c-KIT (V654A)
# T2 construct: amino acids 544-end containing the V654A mutation; GST (N)
# Outline: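 Radiometric filter-binding read-out: substrate 33P incorporation counted by scintillation after P30 filtermat washes in 75 mM phosphoric acid and methanol. Enzyme: N-GST recombinant human c-Kit aa 544-end carrying V654A.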
# [1] = tested on: GISTs with primary mutation; settings: secondary resistance emerges in almost all tumors; cited from earlier work
# T2 sequence (P10721 544-976 V654A): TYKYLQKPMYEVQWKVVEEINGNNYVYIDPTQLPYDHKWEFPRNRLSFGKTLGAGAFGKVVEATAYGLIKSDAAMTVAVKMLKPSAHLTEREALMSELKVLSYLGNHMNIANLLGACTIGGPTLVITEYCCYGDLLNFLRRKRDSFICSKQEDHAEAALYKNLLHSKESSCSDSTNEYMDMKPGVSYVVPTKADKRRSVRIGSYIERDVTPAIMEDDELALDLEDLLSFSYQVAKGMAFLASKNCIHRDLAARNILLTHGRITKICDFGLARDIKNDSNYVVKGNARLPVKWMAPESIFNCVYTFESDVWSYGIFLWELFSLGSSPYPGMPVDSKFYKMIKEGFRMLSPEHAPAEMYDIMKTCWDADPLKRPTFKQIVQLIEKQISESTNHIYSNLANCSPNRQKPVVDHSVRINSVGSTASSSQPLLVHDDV
# T1 sequence (P16234 550-1089 V561D): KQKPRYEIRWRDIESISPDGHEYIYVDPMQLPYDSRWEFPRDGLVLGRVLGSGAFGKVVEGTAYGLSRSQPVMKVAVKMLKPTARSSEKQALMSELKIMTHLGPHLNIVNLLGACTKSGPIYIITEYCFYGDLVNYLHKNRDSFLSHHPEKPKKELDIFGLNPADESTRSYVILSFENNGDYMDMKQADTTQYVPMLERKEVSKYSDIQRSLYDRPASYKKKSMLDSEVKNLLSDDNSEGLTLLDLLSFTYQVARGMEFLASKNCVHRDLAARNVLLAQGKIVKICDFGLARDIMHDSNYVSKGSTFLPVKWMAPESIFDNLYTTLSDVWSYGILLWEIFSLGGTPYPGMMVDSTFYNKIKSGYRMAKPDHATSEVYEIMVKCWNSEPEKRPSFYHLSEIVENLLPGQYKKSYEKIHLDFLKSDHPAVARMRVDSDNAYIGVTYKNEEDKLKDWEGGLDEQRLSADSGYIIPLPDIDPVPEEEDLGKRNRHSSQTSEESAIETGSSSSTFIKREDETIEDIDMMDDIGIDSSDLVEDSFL
SMILES,IC50 (PDGFRalpha(V561D)) [nM],IC50 (c-Kit(V654A)) [nM],initial response rate [1] [%]
"CC(=O)N(C)c1ccc(-n2cc(-c3cc4cc(F)ccc4[nH]c3=O)nn2)cc1 [A353, N-{4-[4-(6-fluoro-2-oxo-1,2-dihydro-quinolin-3-yl)-[1,2,3]triazol-1-yl]-phenyl}-N-methyl-acetamide]",190,94,–
"CN1Cc2cc(-n3cc(-c4cc5cc(F)ccc5[nH]c4=O)nn3)ccc2C1=O [A354, 6-fluoro-3-[1-(2-methyl-1-oxo-2,3-dihydro-1H-isoindol-5-yl)-1H-[1,2,3]triazol-4-yl]-1H-quinolin-2-one]",420,3100,–
"CN1CC[C@@H](Oc2ccc(-n3cc(-c4cc5cc(F)ccc5[nH]c4=O)nn3)cc2)C1 [A367, 6-fluoro-3-{1-[4-((R)-1-methyl-pyrrolidin-3-yloxy)-phenyl]-1H-[1,2,3]triazol-4-yl}-1H-quinolin-2-one]",70,19,–
"CN1CCC(Cc2ccc(-n3cc(-c4cc5cc(F)ccc5[nH]c4=O)nn3)cc2)CC1 [A371, 6-fluoro-3-{1-[4-(1-methyl-piperidin-4-ylmethyl)-phenyl]-1H-[1,2,3]triazol-4-yl}-1H-quinolin-2-one]",11,34,–
"Cc1ccc(NC(=O)c2ccc(CN3CCN(C)CC3)cc2)cc1Nc1nccc(-c2cccnc2)n1 [Imatinib, imatinib]",–,–,~70

# More lines, main results first:
IC50 (PDGFRalpha(V561D)) [nM],IC50 (c-Kit(V654A)) [nM],SMILES,initial response rate [1] [%]
16,9.7,"CN(C(=O)[C@@H]1CCCO1)c1ccc(-n2cc(-c3cc4cc(F)ccc4[nH]c3=O)nn2)cc1 [A344, (S)-tetrahydro-furan-2-carboxylic acid {4-[4-(6-fluoro-2-oxo-1,2-dihydro-quinolin-3-yl)-[1,2,3]triazol-1-yl]-phenyl}-methyl-amide]",–
1500,12,"CN(C(=O)C1CCOCC1)c1ccc(-n2cc(-c3cc4cc(F)ccc4[nH]c3=O)nn2)cc1 [A345, tetrahydro-pyran-4-carboxylic acid {4-[4-(6-fluoro-2-oxo-1,2-dihydro-quinolin-3-yl)-[1,2,3]triazol-111]-phenyl}-methyl-amide]",–
440,260,"CC(=O)N(C)c1ccc(-n2cc(-c3cc4cc(F)c(F)cc4[nH]c3=O)nn2)cc1 [A352, N-{4-[4-(6,7-difluoro-2-oxo-1,2-dihydro-quinolin-3-yl)-[1,2,3]triazol-1-yl]-phenyl}-N-methyl-acetamide]",–
34,23,"CN1CC[C@H](Oc2ccc(-n3cc(-c4cc5cc(Cl)ccc5[nH]c4=O)nn3)cc2)C1 [A368, 6-chloro-3-{1-[4-((S)-1-methyl-pyrrolidin-3-yloxy)-phenyl]-1H-[1,2,3]triazol-4-yl}-1H-quinolin-2-one]",–
34,13,"CN1CC[C@@H](Oc2ccc(-n3cc(-c4cc5cc(Cl)ccc5[nH]c4=O)nn3)cc2)C1 [A369, 6-chloro-3-{1-[4-((R)-1-methyl-pyrrolidin-3-yloxy)-phenyl]-1H-[1,2,3]triazol-4-yl}-1H-quinolin-2-one]",–
58,31,"CN1CC[C@H](Oc2ccc(-n3cc(-c4cc5cc(F)ccc5[nH]c4=O)nn3)cc2)C1 [A370, 6-fluoro-3-{1-[4-((S)-1-methyl-pyrrolidin-3-yloxy)-phenyl]-1H-[1,2,3]triazol-4-yl}-1H-quinolin-2-one]",–
